These results are taken from patent publication US6166085A, “Method of producing analgesia” (priority 1996, dated 2000).

Data set [1] relates to allodynia. In words: Tactile allodynia (paw withdrawal threshold, % MPE) in L5/L6 spinal nerve ligated rats, Example 3. Format: in vivo, Harlan Sprague-Dawley rats. On the procedure:
Male Harlan Sprague-Dawley rats were used (100-200 g). Rats were housed 2-3 to a cage with corn cob bedding and Purina rat chow and water ad libitum, in a standard facility with a 12 h/12 h day/night cycle. After surgical procedures involving chronic indwelling catheter insertion, animals were housed singly to prevent catheter damage.
Rats were allowed to recover 5-7 days before further testing or surgeries.
The catheters were 9 cm in intrathecal length and terminated near the lumbar enlargement. The rostral 3 cm of catheter was tunneled under the skin to externalize between the ears. Rats with neurologic deficits were discarded.
For intravascular access, external jugular catheters were fashioned from PE-50 tubing and inserted into an external jugular vein under halothane/oxygen anesthesia. Arterial catheters were also fashioned from PE-50 with a small bouton 1 cm from the intravascular end for suture securing; they were inserted into a carotid artery, taking care to spare the surrounding nerves. All catheters were flushed with heparinized saline (10 U/ml) and tunneled subcutaneously to emerge at the posterior base of the neck, and capped when not in use.
Monoethylglycinexylidide (MEGX) and 3-hydroxy monoethyl-glycinexylidide (3-OH MEGX) were dissolved in physiologic saline; 3-hydroxylidocaine (3-OH L) was dissolved in DMSO for intravenous administration.
Intravenous drugs were delivered to awake, unrestrained rats by slow infusion using a syringe pump (Harvard apparatus 22). Intrathecal drugs were delivered to awake, briefly restrained rats in a volume of 10 μl, followed by 10 μl of vehicle flush, using a calibrated tubing extension with a 30-gauge adapter fitting the implanted intrathecal catheter, attached to a geared Hamilton 100 μl glass syringe. IT drug delivery was monitored by observing the advancement of a small air bubble down the tubing.
Rats were placed in a plastic cage with an open wire mesh bottom and allowed to accommodate for approximately fifteen minutes. […] In brief, von Frey hairs were sequentially applied using an up-and-down paradigm to the left mid-plantar hindpaw with sufficient force to cause slight filament buckling. Positive responses were noted if the paw was sharply withdrawn. […] Otherwise, PWT were calculated by noting the stimulus level at which the first change in behavior occurred, collecting four additional responses to the continued up-and-down oscillation of stimulus presentation around the response threshold, and interpolating the 50% response threshold. For some comparisons, raw thresholds were converted to percent of maximum possible effect (% MPE), designating pre-treatment PWT (baselines) as 0% effect, and assigning a cutoff value of 100% effect to thresholds ≥15 g: therefore, % MPE values near 100 indicate normal mechanical thresholds (i.e., at or near 15 g), whereas values near 0 indicate allodynia. The following equation was used to compute % MPE:
% MPE=new threshold(g)-baseline threshold(g)×100/ 15 grams--baseline
Plasma drug levels and PWT were correlated using linear regression. Serially measured PWT and % MPE were compared using repeated measures ANOVA with post-hoc testing.

Data set [2] in a line: Metabolism of 14C lidocaine after IV administration, HPLC profile. It is filed as in vivo, Harlan Sprague-Dawley and Dark Agouti rats. As to conditions: 14C lidocaine IV, N=2.
In data set [3] the test system is allodynia. As to conditions: Chaplan et al. 1995, IV or IT, cited from earlier work.
The subject of data set [4] is allodynia. In words: Susceptibility of rat strains to anti-allodynia effects of lidocaine. Format: in vivo, Sprague-Dawley versus Dark Agouti rats. As to conditions: FIG. 11 legend.

Read-outs that look alike come from different tables or passages of the source.

Regarding `CCNCC(=O)Nc1c(C)ccc(O)c1C` [3-hydroxy MEGX, 2-(ethylamino)-N-(3-hydroxy-2,6-dimethylphenyl) acetamide], in data set [1] (IT), the “suppression of allodynia after IT administration (summary)” value was “suppressed allodynia after IT administration”. Also, the “MPE, IT 67 μg” value in data set [1] (IT, dose printed 67 μ, P<0.0001) amounted to 63±17%. The “effect on allodynia, IV (in words)” value in data set [1] (IV infusion, 20 mg/kg) was “did not show a significant effect in suppressing allodynia”. In data set [1] (rat, in vivo), the “activity as metabolite with regard to allodynia suppression” value is on record as “active metabolite with regard to allodynia suppression”.

In the case of `CCN(CC)CC(=O)Nc1c(C)cccc1C` [lidocaine], in data set [2] (Dark Agouti), the “glucuronidated 3-OH MEGX in elution profile, DA rats” value is “absent from the profile of DA rats”. In data set [2] (Sprague-Dawley), the “glucuronidated 3-OH MEGX in elution profile, SD rats” value is on record as “a large peak in the elution profile of SD rats, found to consist of a glucuronidated form of 3-OH MEGX”. The “anti-allodynic effect of lidocaine” value in data set [3] is reported as “no anti-allodynic effect after termination of motor block”. In data set [3] (listed as Lidocaine), the “anti-allodynic effect of lidocaine” value is recorded as “effective against allodynia by the intravenous, but not the intrathecal/regional routes”. Also, in data set [1] (IT, 500 μg, after recovery of motor function), the “effect on allodynia / PWT, IT 500 μg (in words)” value was “no effect on allodynia was seen”. Also, in data set [4], the “susceptibility to anti-allodynia effects of lidocaine, Dark Agouti rats” value was “not similarly susceptible” and the “susceptibility to anti-allodynia effects of lidocaine, Sprague-Dawley rats” value is “susceptible to anti-allodynia effects of Lidocaine”.
